Test results: patent US20250332112A1, “IONIZABLE CATIONIC LIPIDS FOR LIPID NANOPARTICLES” (GENEVANT SCIENCES GMBH, priority 2022, published 2025)

Legend:
[1] = Particle characteristics of LNPs containing EGFP mRNA and novel ionizable lipids; assay type: physicochemical; conditions: EGFP mRNA LNP 1.6:54.6:32.8:10.9
Experimental: The lipid solution contains 4 components: a PEG-conjugated lipid, an ionizable lipid, cholesterol, and a phospholipid (e.g., DSPC). Lipid stocks were prepared using the lipid identities and molar ratios as described, to achieve a total concentration of ˜7 mg/mL in 100% ethanol. […] Equal volumes of the lipid and nucleic acid solutions were blended at a flow rate of 400 mL/min through a T-connector, and diluted with ˜4 volumes of PBS, pH 7.4. Formulations were placed in Slide-A-Lyzer dialysis units (MWCO 10,000) and dialyzed overnight against 10 mM Tris, 500 mM NaCl, pH 8 buffer. Following dialysis, the formulations were concentrated to ˜0.6 mg/mL using VivaSpin concentrator units (MWCO 100,000) and dialyzed overnight against 5 mM Tris, 10% sucrose, pH 8 buffer. Formulations were filtered through a 0.2 μm syringe filter (PES membrane). Nucleic acid concentration was determined by the RiboGreen assay. Particle size and polydispersity were determined using a Malvern Nano Series Zetasizer.
LNP formulations containing novel ionizable lipids all produced stable particles with high encapsulation efficiency (Tables 20-23).

[2] = test system: EGFP expression in the liver; experiment: EGFP expression in liver after intravenous EGFP mRNA LNP (ELISA); conditions: 0.5 mg/kg IV, 24 h post-IV administration, BALB/c mice (n = 4)
Experimental: LNP formulations encapsulating enhanced green fluorescent protein mRNA were injected intravenously at 0.5 mg/kg to female BALB/c mice (6-8 weeks old). On day of injection, the LNP stocks were filtered and diluted to the required dosing concentration with phosphate buffered saline. At 24 hours post-administration, animals were anaesthetized with a lethal dosage of ketamine/xylazine. Liver samples (left lateral lobe) were collected, weighed, and flash frozen in liquid nitrogen. Liver samples were stored in FastPrep® tubes at −80° C. until analyzed for EGFP expression.
Liver homogenates were prepared in cell extraction buffer, diluted, and analyzed for EGFP protein levels using ELISA, according to manufacturer's instructions (Abcam, GFP ELISA Kit).

[3] = Parent ionizable lipid remaining in liver at 24 h after EGFP mRNA LNP (LC-MS); assay type: in vivo; conditions: 24 h after IV 0.5 mg/kg EGFP mRNA LNP, female BALB/c mice (n = 4)
Experimental: Liver tissues were treated with PBS and homogenized with a FastPrep machine, 3 cycles of 5 m/s×15 s. Homogenates from the PBS-treated control animals was pooled and used for standard curve preparation. Samples were extracted into a deep well plate with 250 μL of an internal suitability standard. Plates were centrifuged for 15 min at 4° C. and 2000 rpm. Analysis was performed using an Agilent 6520 QTOF coupled to an Agilent 1290 UHPLC, using reverse-phase LC separation. Quantitation of the ionizable lipid was by MS/MS against a calibration curve spiked into appropriately matched blank matrix. Calibration used a similar class of synthetic lipid as internal standard.
At 24 h post-dose, some treatment groups reported lower levels of novel ionizable lipid in mouse liver compared to the benchmark (Tables 28-31).

| Compound | Final Product % EE ([1]; Table 21) | Final Product PDI ([1]; Table 21) | Final Product Z-avg ([1]; Table 21) | EGFP ([2]; Table 25) | Parent ionizable lipid remaining in liver, Average ([3]; Table 29) | Final Product % EE ([1]; Table 22) | Final Product PDI ([1]; Table 22) | Final Product Z-avg ([1]; Table 22) | EGFP ([2]; Table 26) | Parent ionizable lipid remaining in liver, Average ([3]; Table 30) |
| --- | --- | --- | --- | --- | --- | --- | --- | --- | --- | --- |
| CCCCCCCCCCON(C(=O)CCCCN(C)C)C(CCCCCCCCCC)CCCCCCC(=O)OCCC(CCCCC)CCCCC (stereo not drawn) [Compound 95, 3-Pentyloctyl 8-(N-(decyloxy)-5-(dimethylamino)pentanamido)octadecanoate] | 96% | 0.08 | 80 nm | 8.76E+05 pg/g liver | 9.44 nmol/g liver |  |  |  |  |  |
| CCCCCCCCCCON(C(=O)CCCCN(C)C)C(CCCCCCCCCC)CCCCCCC(=O)OCCC(CCCCCC)CCCCCC (stereo not drawn) [Compound 97, 3-Hexylnonyl 8-(N-(decyloxy)-5-(dimethylamino)pentanamido)octadecanoate] | 99% | 0.07 | 85 nm | 1.48E+06 pg/g liver | 19.31 nmol/g liver |  |  |  |  |  |
| CCCCCC/C=C\CCON(C(=O)CCCCN(C)C)C(CCCCCCCCCC)CCCCCCC(=O)OCCC(CCCCCCC)CCCCCCC (stereo not drawn) [Compound 98, 3-Heptyldecyl (Z)-8-(N-(dec-3-en-1-yloxy)-5-(dimethylamino)pentanamido)octadecanoate] | 99% | 0.06 | 84 nm | 9.76E+05 pg/g liver | 30.21 nmol/g liver |  |  |  |  |  |
| CCCCCCCCCCON(C(=O)CCCCN(C)C)C(CCCCCCCCCC)CCCCCCC(=O)OCCC(CCCCCCC)CCCCCCC (stereo not drawn) [Compound 99, 3-Heptyldecyl 8-(N-(decyloxy)-5-(dimethylamino)pentanamido)octadecanoate] | 97% | 0.04 | 86 nm | 1.05E+06 pg/g liver | 19.93 nmol/g liver |  |  |  |  |  |
| CCCCCC/C=C\CCON(C(=O)CCCN(C)C)C(CCCCCCCCCC)CCCCCCC(=O)OCCC(CCCCC)CCCCC (stereo not drawn) [Compound 100, 3-Pentyloctyl (Z)-8-(N-(dec-3-en-1-yloxy)-4-(dimethylamino)butanamido)octadecanoate] | 98% | 0.08 | 72 nm | 5.98E+05 pg/g liver | 5.03 nmol/g liver |  |  |  |  |  |
| CCCCCCCCCCN(C(=O)CCCN(C)C)C(CCCCCCCCC)CCCCC(F)(F)C(=O)OCC(CCCCCC)CCCCCCCC (stereo not drawn) [Compound 102, 2-Hexyldecyl 7-(N-decyl-4-(dimethylamino)butanamido)-2,2-difluorohexadecanoate] | 98% | 0.09 | 67 nm | 1.94E+05 pg/g liver | 5.72 nmol/g liver |  |  |  |  |  |
| CCCCCCCCCCN(C(=O)CCCN(C)C)C(CCCCCCCCC)CCCCC(F)(F)C(=O)OCCC(CCCCCC)CCCCCC (stereo not drawn) [Compound 103, 3-Hexylnonyl 7-(N-decyl-4-(dimethylamino)butanamido)-2,2-difluorohexadecanoate] | 98% | 0.09 | 67 nm | 9.54E+04 pg/g liver | 0.00 nmol/g liver |  |  |  |  |  |
| CCCCCCCCCCN(C(=O)CCCN(C)C)C(CCCCCCCCC)CCCCCCC(F)(F)C(=O)OC(CCCCCCCC)CCCCCCCC (stereo not drawn) [Compound 104, Heptadecan-9-yl 9-(N-decyl-4-(dimethylamino)butanamido)-2,2-difluorooctadecanoate] |  |  |  |  |  | 99% | 0.07 | 74 nm | 7.36E+06 pg/g liver | 51.14 nmol/g liver |
| CCCCCCCCCCC(CCCCCCC(=O)OCCC(CCCCCC)CCCCCC)N(CCCCCCCCCC)C(=O)OCCCN(C)C (stereo not drawn) [Compound 105, 3-hexylnonyl 8-(decyl((3-(dimethylamino)propoxy)carbonyl)-amino) octadecanoate] |  |  |  |  |  | 97% | 0.08 | 82 nm | 1.86E+07 pg/g liver | 18.96 nmol/g liver |
| CCCCCCCCCCON(C(=O)CCCN(C)C)C(CCCCCCCCCC)CCCCCCC(F)(F)C(=O)OC(CCCCCCC)CCCCCCC (stereo not drawn) [Compound 106, Pentadecan-8-yl 9-(N-(decyloxy)-4-(dimethylamino)butanamido)-2,2-difluoro-nonadecanoate] |  |  |  |  |  | 95% | 0.13 | 73 nm | 2.45E+07 pg/g liver | 56.97 nmol/g liver |
| CCCCCCCCCCC(CCCCCCC(=O)OCC(CCCCCC)CCCCCCCC)N(CCCCCCCCCC)C(=O)CCN(C)C (stereo not drawn) [Compound 107, 2-Hexyldecyl 8-(N-decyl-3-(dimethylamino)propanamido)octadecanoate] |  |  |  |  |  | 98% | 0.06 | 76 nm | 3.66E+07 pg/g liver | 28.74 nmol/g liver |
| CCCCCCCCCCN(C(=O)CCCN(C)C)C(CCCCCCCCC)CCCCC(F)(F)C(=O)OC(CCCCC)CCCCC (stereo not drawn) [Compound 108, Undecan-6-yl 7-(N-decyl-4-(dimethylamino)butanamido)-2,2-difluorohexadecanoate] |  |  |  |  |  | 95% | 0.07 | 80 nm | 5.41E+07 pg/g liver | 3.86 nmol/g liver |
| CCCCCCCCCCN(C(=O)CCCN(C)C)C(CCCCCCCCC)CCCCC(F)(F)C(=O)OC(CCCCCCCC)CCCCCCCC (stereo not drawn) [Compound 110, Heptadecan-9-yl 7-(N-decyl-4-(dimethylamino)butanamido)-2,2-difluorohexadecanoate] |  |  |  |  |  | 98% | 0.11 | 67 nm | 4.01E+07 pg/g liver | 33.07 nmol/g liver |
| CCCCCCCCCCN(C(=O)CCCN(C)C)C(CCCCCCCCC)CCCCCCC(F)C(=O)OC(CCCCC)CCCCC (stereo not drawn) [Compound 112, Undecan-6-yl 9-(N-decyl-4-(dimethylamino)butanamido)-2-fluorooctadecanoate] |  |  |  |  |  | 95% | 0.08 | 82 nm | 4.78E+07 pg/g liver | 1.73 nmol/g liver |
| CCCCCCCCCCN(C(=O)CCCN(C)C)C(CCCCCCCCC)CCCCCCC(F)C(=O)OC(CCCCCC)CCCCCC (stereo not drawn) [Compound 113, Tridecan-7-yl 9-(N-decyl-4-(dimethylamino)butanamido)-2-fluorooctadecanoate] |  |  |  |  |  | 98% | 0.05 | 72 nm | 3.45E+07 pg/g liver | 4.68 nmol/g liver |
| CCCCCCCCCCN(C(=O)CCCN(C)C)C(CCCCCCCCC)CCCCCCC(F)C(=O)OC(CCCCCCC)CCCCCCC (stereo not drawn) [Compound 114, Pentadecan-8-yl 9-(N-decyl-4-(dimethylamino)butanamido)-2-fluorooctadecanoate] |  |  |  |  |  | 98% | 0.08 | 73 nm | 4.29E+07 pg/g liver | 12.79 nmol/g liver |
| CCCCCCCCCCC(CCCCCCC(=O)OC(CCCCCC)CCCCCC)N(CCCCCCC(F)(F)C(=O)OC(CCCCCC)CCCCCC)C(=O)CCCN(C)C (stereo not drawn) [Compound 116, Tridecan-7-yl 8-(N-(7,7-difluoro-8-oxo-8-(tridecan-7-yloxy)octyl)-4-(dimethylamino)-butanamido)octadecanoate] |  |  |  |  |  | 98% | 0.09 | 75 nm | 2.93E+07 pg/g liver | 60.05 nmol/g liver |
| CCCCCCCCCCC(CCCCCCC(=O)OC(CCCCCCC)CCCCCCC)N(CCCCCCC(F)(F)C(=O)OC(CCCCCCC)CCCCCCC)C(=O)CCCN(C)C (stereo not drawn) [Compound 117, Pentadecan-8-yl 8-(N-(7,7-difluoro-8-oxo-8-(pentadecan-8-yloxy)octyl)-4-(dimethylamino)butanamido)octadecanoate] |  |  |  |  |  | 99% | 0.06 | 80 nm | 3.15E+07 pg/g liver | 49.53 nmol/g liver |
